For assay [1], the system named is MDA-MB-231 (human breast adenocarcinoma). Briefly: MTT cytotoxicity assay, MDA-MB-231. In kind it is cell-based. The note with it: for IC50: Homo sapiens, MDA-MB-231. Here is the method:
(§1) Cytotoxic activities of all compounds are evaluated by MTT assay using KYSE-150 (human oesophagus carcinoma), MKN-45 (human gastric aednocarcinoma), DLD-1 (human colorectal carcinoma cell line), HepG2 (human hepatocellular carcinoma), MCF-7 (human breast adenocarcinoma), and MDA-MB-231 (human breast adenocarcinoma). Canthatidin is used as positive control.
(§2) Cells are seeded in a 96-well plate (4×10^3 cells/well) and allowed to attach overnight.
(§3) After the recovery, cells are treated with 1.56 μM, 3.125 μM, 6.25 μM, 12.5 μM, 25 μM, 50 μM of each of the compounds in culture medium for 48 hrs. […] Finally, the culture medium is removed and 200 μL of DMSO are added to each well to dissolve the purple formazan crystals.

The subject of assay [2] is MCF-7 (human breast adenocarcinoma). Briefly: MTT cytotoxicity assay, MCF-7. In kind it is cell-based. The following applies: for IC50: Homo sapiens, MCF7. Here is the method:
as §1, §2, §3

In assay [3] the test system is KYSE-150 (human oesophagus carcinoma). Briefly: MTT cytotoxicity assay, KYSE-150. The note with it: for IC50: Homo sapiens, KYSE-150. The class given is cell-based. The procedure: as §1, §2, §3
On the technique in general: Formazan colour is commonly taken as a measure of viable cells.

For assay [4], the system named is MKN-45 (human gastric aednocarcinoma). The experiment in a line: MTT cytotoxicity assay, MKN-45. The class given is cell-based. The following applies: 48 hrs treatment. The procedure:
as §1, §2, §3

The test system of assay [5] is HepG2 (human hepatocellular carcinoma). Briefly: MTT cytotoxicity assay, HepG2. The class given is cell-based. The note with it: 48 hrs treatment. The procedure: as §1, §2, §3
Assay [6] deals with DLD-1 (human colorectal carcinoma cell line). Briefly: MTT cytotoxicity assay, DLD-1. In kind it is cell-based. The following applies: for IC50: Homo sapiens, DLD-1. Here is the method:
as §1, §2, §3

A further assay has as its system KYSE-150 cells. The experiment in a line: Wound healing assay. The class given is cell-based, human. The following applies: for Cell migration into the wound: KYSE-150 monolayer, 72 h, 1 and 2.5 μM/mL; for Viability of KYSE-150 cells as compared to controls: highest concentration of 1 μM/mL and 2.5 μM/mL. Here is the method: In addition, wound healing assay is used to test whether the compounds 1, 2 and 3 could affect cell motility.
A wound healing assay is performed as follows: KYESE-150 cells are seeded in each well of the 12-well plate at 50% confluence in completed medium. After 24 hrs seeding, the monolayer is wounded by scoring with a sterile plastic tip (1 mL), then washed several times with medium to remove cell debris and then incubated in conditioned medium in the absence or presence of the tested compounds for various periods of time up to 72 h. […] Cell migration into the wound surface is monitored by Olympus IX71 microscopy and digitally photographed.

[7] abbreviates: MTT, 48 hrs treatment, read-out: Cytotoxicity IC50, MDA-MB-231.
Setting [8] is: MTT, 48 hrs treatment, read-out: Cytotoxicity IC50, MCF-7.
[9] abbreviates: MTT, 48 hrs treatment, read-out: Cytotoxicity IC50, KYSE-150.
The mark [10] stands for this setting: MTT, 48 hrs treatment, read-out: Cytotoxicity IC50, DLD-1.

Where two headings read alike, the source gives them in different places.

The results in this text go back to patent publication US9120816B2, “Oxanorbornadiene derivatives and their anticancer activities” (priority 2012, dated 2015).

Broadly, the IC50 is the concentration that gives 50% inhibition.

On to `COC(=O)C1=C(C(=O)OC)C2OC1CC2C#Cc1ccc(OC)cc1` (centres unmarked) [Compound 1], for which the concentration for half-maximal inhibition (IC50) is 2.3 µM in assay [1] (setting [7]); less than 10 µM in assay [1] (summary statement in conclusion, read-out: IC50 of cell growth inhibition, MDA-MB-231); 2.46 µM in assay [2] (setting [8]); less than 10 µM in assay [2] (summary statement in conclusion, read-out: IC50 of cell growth inhibition, MCF-7); 1.82 µM in assay [3] (setting [9]); less than 10 µM in assay [3] (summary statement in conclusion, read-out: IC50 of cell growth inhibition, KYSE-150). Also, the IC50 in assay [4] was 21.3 µM; in assay [5] it was 6.2 µM; in assay [6] (setting [10]) it was 6 µM; in assay [6] (summary statement in conclusion, read-out: IC50 of cell growth inhibition, DLD-1) it was less than 10 µM. Also, in the assay on KYSE-150 cells, the “Cell migration into the wound” value was “do not migrate into the wound”. The “Viability of KYSE-150 cells as compared to controls” value (“Viability … compared to controls” below) in the assay on KYSE-150 cells is “do not alter the viability”.
On to `CCOC(=O)C1=C(C(=O)OCC)C2OC1CC2C#Cc1ccc(OC)cc1` (centres unmarked) [Compound 2], for which the half-maximal inhibitory concentration (IC50) stood at 2.81 µM in assay [1] (setting [7]); 6.39 µM in assay [2] (setting [8]); 1.4 µM in assay [3] (setting [9]); 26 µM in assay [4]; 15.7 µM in assay [5]; 1.74 µM in assay [6] (setting [10]). Also, the “Growth inhibition of MDA-MB-231 cells as compared to positive control” value in assay [1] (compared with canthatidin) was “growth-inhibiting effects”. Further, in assay [2] (compared with canthatidin), the “Growth inhibition of MCF-7 cells as compared to positive control” value is recorded as “growth-inhibiting effects”. Also, in assay [3] (compared with canthatidin), the “Growth inhibition of KYSE-150 cells as compared to positive control” value is reported as “growth-inhibiting effects”. The “Cell migration into the wound” value in the assay with KYSE-150 cells is reported as “do not migrate into the wound”. Besides, the “Viability … compared to controls” value in the assay on KYSE-150 cells is on record as “do not alter the viability”.
In the case of `COc1ccc(C#CC2CC3OC2C(C(=O)OC(C)(C)C)=C3C(=O)OC(C)(C)C)cc1` (centres unmarked) [Compound 3], the IC50 in assay [1] (setting [7]) amounted to 50.2 µM; in assay [2] (setting [8]) it was 33.4 µM; in assay [3] (setting [9]) it was 5.4 µM; in assay [4] it was 6.31 µM; in assay [5], 8.4 µM; in assay [6] (setting [10]), 3.77 µM. Also, the “Growth inhibition of DLD-1 cells as compared to positive control” value in assay [6] (compared with canthatidin) is reported as “growth-inhibiting effects”. In addition, in the assay with KYSE-150 cells, the “Cell migration into the wound” value is recorded as “do not migrate into the wound”. Further, the “Viability … compared to controls” value with KYSE-150 cells is reported as “do not alter the viability”.
Take `C[C@@]12C(=O)OC(=O)[C@]1(C)[C@H]1CC[C@@H]2O1` [Cantharidin, reference compound]: the IC50 worked out at 4.69 µM in assay [1] (setting [7]); 13 µM in assay [2] (setting [8]); 3.1 µM in assay [3] (setting [9]); 4.52 µM in assay [4]; 3.1 µM in assay [5]; 13.9 µM in assay [6] (setting [10]).
